Tests used:
[1] = system: HeLa; test: Cell permeability in human HeLa cells assessed as glucocorticoid receptor-dependent induction of luciferase activity after 40 hrs by GAL4-responsive luciferase reporter gene assay
[2] = biological target: T1, Glucocorticoid receptor (Homo sapiens, UniProt P04150)
T1 sequence (P04150 whole entry): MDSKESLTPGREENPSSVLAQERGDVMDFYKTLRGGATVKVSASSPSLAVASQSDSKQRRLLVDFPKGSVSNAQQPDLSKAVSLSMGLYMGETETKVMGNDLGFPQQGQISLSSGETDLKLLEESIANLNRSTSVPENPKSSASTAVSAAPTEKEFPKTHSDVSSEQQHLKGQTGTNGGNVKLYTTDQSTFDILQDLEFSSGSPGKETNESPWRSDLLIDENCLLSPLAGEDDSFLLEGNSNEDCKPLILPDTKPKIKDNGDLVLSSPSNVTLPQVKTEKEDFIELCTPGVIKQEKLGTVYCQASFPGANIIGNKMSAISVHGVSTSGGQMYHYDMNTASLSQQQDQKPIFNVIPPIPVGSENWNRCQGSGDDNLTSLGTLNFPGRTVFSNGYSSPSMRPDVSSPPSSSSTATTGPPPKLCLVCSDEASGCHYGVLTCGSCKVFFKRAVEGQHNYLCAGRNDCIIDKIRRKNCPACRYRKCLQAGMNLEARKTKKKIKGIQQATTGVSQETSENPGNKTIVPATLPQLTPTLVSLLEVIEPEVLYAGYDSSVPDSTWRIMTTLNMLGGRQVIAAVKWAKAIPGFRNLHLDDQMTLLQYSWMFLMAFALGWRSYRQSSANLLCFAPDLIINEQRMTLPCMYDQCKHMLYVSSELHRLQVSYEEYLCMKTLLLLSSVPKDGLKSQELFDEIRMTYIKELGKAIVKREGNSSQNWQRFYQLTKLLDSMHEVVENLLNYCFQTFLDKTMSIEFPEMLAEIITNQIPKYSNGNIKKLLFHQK
Description: Displacement of fluormone from human recombinant glucocorticoid receptor ligand binding domain by fluorescence polarization assay

[3] = system: glucocorticoid receptor; test: Cell permeability in human HeLa cells assessed as glucocorticoid receptor-dependent induction of luciferase activity at 6 uM after 40 hrs by GAL4-responsive luciferase reporter gene assay relative to control; settings: HeLa cells with GAL4-responsive luciferase reporter
[4] = system: glucocorticoid receptor; test: Cell permeability in human HeLa cells assessed as glucocorticoid receptor-dependent induction of luciferase activity at 0.6 uM after 40 hrs by GAL4-responsive luciferase reporter gene assay relative to control; settings: HeLa cells with GAL4-responsive luciferase reporter
[5] = biological target: Nucleic Acid
[6] = system: MCF7; test: Cell permeability in human MCF7 cells assessed as glucocorticoid receptor-dependent induction of luciferase activity after 40 hrs by GAL4-responsive luciferase reporter gene assay; settings: MCF7, 40 h
[7] = system: glucocorticoid receptor; test: Cell permeability in human MCF7 cells assessed as glucocorticoid receptor-dependent induction of luciferase activity at 1 uM after 40 hrs by GAL4-responsive luciferase reporter gene assay relative to control; settings: MCF7 cells with GAL4-responsive luciferase reporter

Structure (SMILES): C[C@H]1C[C@@H]2[C@H]3CCC4=CC(=O)C=C[C@@]4(C)[C@]3(F)[C@H](O)C[C@@]2(C)[C@]1(O)C(=O)CSCCNC(=S)NCCNC(=O)c1cc(NC(=O)c2cncn2C)cn1C
- EC50 [1]: 750 nM
- IC50 [2]: 5.7 nM

Structure (SMILES): C[C@@H]1C[C@H]2[C@@H]3CCC4=CC(=O)C=C[C@]4(C)[C@@]3(F)[C@@H](O)C[C@]2(C)[C@@]1(O)C(=O)CSCCNC(=S)NCCCN(C)CCCNC(=O)CCNC(=O)c1cc(NC(=O)c2cc(NC(=O)c3nccn3C)cn2C)cn1C
- IC50 [2]: 12 nM

Structure (SMILES): C[C@H]1C[C@@H]2[C@H]3CCC4=CC(=O)C=C[C@@]4(C)[C@]3(F)[C@H](O)C[C@@]2(C)[C@]1(O)C(=O)CSCCNC(=S)NCCNC(=O)c1cc(NC(=O)c2cc(NC(=O)c3cc(NC(=O)c4nccn4C)cn3C)cn2C)cn1C
- IC50 [2]: 26 nM

Structure (SMILES): C[C@@H]1C[C@H]2[C@@H]3CCC4=CC(=O)C=C[C@]4(C)[C@@]3(F)[C@@H](O)C[C@]2(C)[C@@]1(O)C(=O)CSCCNC(=S)NCCCN(C)CCCNC(=O)CCNC(=O)c1cc(NC(=O)c2nccn2C)cn1C
- IC50 [2]: 8.5 nM

Structure (SMILES): C[C@H]1C[C@@H]2[C@H]3CCC4=CC(=O)C=C[C@@]4(C)[C@]3(F)[C@H](O)C[C@@]2(C)[C@]1(O)C(=O)CSCCNC(=S)NCCNC(=O)c1cc(NC(=O)c2cc(NC(=O)c3cc(NC(=O)c4cc(NC(=O)CCCNC(=O)c5nccn5C)cn4C)cn3C)cn2C)cn1C
- IC50 [2]: 23 nM

Structure (SMILES): C[C@H]1C[C@@H]2[C@H]3CCC4=CC(=O)C=C[C@@]4(C)[C@]3(F)[C@H](O)C[C@@]2(C)[C@]1(O)C(=O)CSCCNC(=S)NCCNC(=O)c1cc(NC(=O)c2cc(NC(=O)c3nccn3C)cn2C)cn1C
- EC50 [1]: 1200 nM
- fold induction at 40 h, 6 µM [3]: 3400
- IC50 [2]: 14 nM

Structure (SMILES): C[C@H]1C[C@@H]2[C@H]3CCC4=CC(=O)C=C[C@@]4(C)[C@]3(F)[C@H](O)C[C@@]2(C)[C@]1(O)C(=O)CSCCNC(=S)NCCNC(=O)c1cc(NC(=O)c2cc(NC(=O)c3cc(NC(=O)c4cc(NC(=O)c5nccn5C)cn4C)cn3C)cn2C)cn1C
- IC50 [2]: 34 nM

Structure (SMILES): C[C@H]1C[C@@H]2[C@H]3CCC4=CC(=O)C=C[C@@]4(C)[C@]3(F)[C@H](O)C[C@@]2(C)[C@]1(O)C(=O)CSCCNC(=S)NCCNC(=O)c1cc(NC(=O)c2cc(NC(=O)c3cc(NC(=O)c4cc(NC(=O)CCCNC(=O)c5cc(NC(=O)c6nccn6C)cn5C)cn4C)cn3C)cn2C)cn1C
- IC50 [2]: 21 nM

Structure (SMILES): C[C@@H]1C[C@H]2[C@@H]3CCC4=CC(=O)C=C[C@]4(C)[C@@]3(F)[C@@H](O)C[C@]2(C)[C@@]1(O)C(=O)CSCCNC(=S)NCCCN(C)CCCNC(=O)CCNC(=O)c1cc(NC(=O)c2cc(NC(=O)c3cc(NC(=O)c4cc(NC(=O)CCCNC(=O)c5cc(NC(=O)c6nccn6C)cn5C)cn4C)cn3C)cn2C)cn1C
- IC50 [2]: 22 nM

Structure (SMILES): C[C@H]1C[C@@H]2[C@H]3CCC4=CC(=O)C=C[C@@]4(C)[C@]3(F)[C@H](O)C[C@@]2(C)[C@]1(O)C(=O)CSCCNC(=S)NCCNC(=O)c1cc(NC(=O)c2cc(NC(=O)c3cc(NC(=O)c4cc(NC(=O)CCCNC(=O)c5cc(NC(=O)c6cc(NC(=O)c7nccn7C)cn6C)cn5C)cn4C)cn3C)cn2C)cn1C
- IC50 [2]: 21 nM

Structure (SMILES): CC(=O)NCCNC(=S)NCCSCC(=O)[C@@]1(O)[C@H](C)C[C@H]2[C@@H]3CCC4=CC(=O)C=C[C@]4(C)[C@@]3(F)[C@@H](O)C[C@@]21C
- EC50 [1]: 290 nM
- fold induction at 40 h, 0.6 µM [4]: 3600
- IC50 [2]: 9.8 nM

Structure (SMILES): C[C@@H]1C[C@H]2[C@@H]3CCC4=CC(=O)C=C[C@]4(C)[C@@]3(F)[C@@H](O)C[C@]2(C)[C@@]1(O)C(=O)CSCCNC(=S)NCCCN(C)CCCNC(=O)CCNC(=O)c1cc(NC(=O)c2cc(NC(=O)c3cc(NC(=O)c4cc(NC(=O)c5nccn5C)cn4C)cn3C)cn2C)cn1C
- IC50 [2]: 16 nM

Structure (SMILES): C[C@H]1C[C@@H]2[C@H]3CCC4=CC(=O)C=C[C@@]4(C)[C@]3(F)[C@H](O)C[C@@]2(C)[C@]1(O)C(=O)NCCNC(=O)c1cc(NC(=O)c2cc(NC(=O)c3cc(NC(=O)c4nccn4C)cn3C)cn2C)cn1C
- IC50 [2]: 550 nM

Structure (SMILES): C[C@H]1C[C@@H]2[C@H]3CCC4=CC(=O)C=C[C@@]4(C)[C@]3(F)[C@H](O)C[C@@]2(C)[C@]1(O)C(=O)NCCNC(=O)c1cc(NC(=O)c2nccn2C)cn1C
- EC50 [1]: 4200 nM
- IC50 [2]: 460 nM

Structure (SMILES): C[C@@H]1C[C@H]2[C@@H]3CCC4=CC(=O)C=C[C@]4(C)[C@@]3(F)[C@@H](O)C[C@]2(C)[C@@]1(O)C(=O)CSCCNC(=S)NCCCN(C)CCCNC(=O)CCNC(=O)c1cc(NC(=O)c2cc(NC(=O)c3cc(NC(=O)c4cc(NC(=O)CCCNC(=O)c5cc(NC(=O)c6cc(NC(=O)c7cc(NC(=O)c8nccn8C)cn7C)cn6C)cn5C)cn4C)cn3C)cn2C)cn1C
- Kd [5]: 5 nM

Structure (SMILES): C[C@H]1C[C@@H]2[C@H]3CCC4=CC(=O)C=C[C@@]4(C)[C@]3(F)[C@H](O)C[C@@]2(C)[C@]1(O)C(=O)NCCNC(=O)c1cc(NC(=O)c2cc(NC(=O)c3cc(NC(=O)c4cc(NC(=O)CCCNC(=O)c5cc(NC(=O)c6cc(NC(=O)c7cc(NC(=O)c8nccn8C)cn7C)cn6C)cn5C)cn4C)cn3C)cn2C)cn1C
- IC50 [2]: 840 nM

Structure (SMILES): C[C@@H]1C[C@H]2[C@@H]3CCC4=CC(=O)C=C[C@]4(C)[C@@]3(F)[C@@H](O)C[C@]2(C)[C@@]1(O)C(=O)CSCCNC(=S)NCCCN(C)CCCNC(=O)CCNC(=O)c1cc(NC(=O)c2cc(NC(=O)c3cc(NC(=O)c4cc(NC(=O)CCCNC(=O)c5nccn5C)cn4C)cn3C)cn2C)cn1C
- IC50 [2]: 16 nM

Structure (SMILES): C[C@@H]1C[C@H]2[C@@H]3CCC4=CC(=O)C=C[C@]4(C)[C@@]3(F)[C@@H](O)C[C@]2(C)[C@@]1(O)C(=O)CSCCNC(=S)NCCCN(C)CCCNC(=O)CCNC(=O)c1cc(NC(=O)c2cc(NC(=O)c3cc(NC(=O)c4nccn4C)cn3C)cn2C)cn1C
- IC50 [2]: 20 nM

Structure (SMILES): C[C@@H]1C[C@H]2[C@@H]3CCC4=CC(=O)C=C[C@]4(C)[C@@]3(F)[C@@H](O)C[C@]2(C)[C@@]1(O)C(=O)CSCCNC(=S)NCCCN(C)CCCNC(=O)CCNC(=O)c1cc(NC(=O)c2cc(NC(=O)c3cc(NC(=O)c4cc(NC(=O)CCCNC(=O)c5cc(NC(=O)c6cc(NC(=O)c7nccn7C)cn6C)cn5C)cn4C)cn3C)cn2C)cn1C
- IC50 [2]: 20 nM

Structure (SMILES): CC(=O)NCCC(=O)NCCCN(C)CCCNC(=S)NCCSCC(=O)[C@@]1(O)[C@H](C)C[C@H]2[C@@H]3CCC4=CC(=O)C=C[C@]4(C)[C@@]3(F)[C@@H](O)C[C@@]21C
- fold induction at 40 h, 6 µM [3]: 600
- EC50 [6]: 250 nM
- fold induction at 40 h, 1 µM [7]: 1200
- IC50 [2]: 9.3 nM

Structure (SMILES): C[C@H]1C[C@@H]2[C@H]3CCC4=CC(=O)C=C[C@@]4(C)[C@]3(F)[C@H](O)C[C@@]2(C)[C@]1(O)C(=O)CSCCNC(=S)NCCNC(=O)c1cc(NC(=O)c2cc(NC(=O)c3cc(NC(=O)c4cc(NC(=O)CCCNC(=O)c5cc(NC(=O)c6cc(NC(=O)c7cc(NC(=O)c8nccn8C)cn7C)cn6C)cn5C)cn4C)cn3C)cn2C)cn1C
- fold induction at 40 h, 6 µM [3]: 1500
- IC50 [2]: 27 nM

Structure (SMILES): C[C@@H]1C[C@H]2[C@@H]3CCC4=CC(=O)C=C[C@]4(C)[C@@]3(F)[C@@H](O)C[C@]2(C)[C@@]1(O)C(N)=O [OXDEX]
- EC50 [1]: 35000 nM

Source: ChEMBL document CHEMBL1158488, “Investigation of the relative cellular permeability of DNA-binding pyrrole-imidazole polyamides” (J Med Chem, 2009)
